Source: US20240343740A1, “MACROCYCLIC GLUCAGON-LIKE PEPTIDE 1 RECEPTOR AGONISTS” (Eli Lilly and Company, priority 2021, published 2024)

How the values were obtained:
human GLP-1R [1] = target: T1, human GLP-1R (Homo sapiens, UniProt P43220); assay: Human GLP-1 Receptor HEK293 cell cAMP assay, 581 fmol/mg GLP-1R expression density; assay type: cell-based; set-up: expressed in transfected cells; host or cells: HEK293 clonal cell line; details: HEK293 cell line with 581 fmol/mg expression density of GLP-1R; for EC50: geometric mean, read-out: EC50 nM (SEM, n), intracellular cAMP response, relative EC50; for Emax: percent of maximal response to GLP-1(7-36)NH2, arithmetic mean, read-out: Emax % (SEM, n), intracellular cAMP response
Procedure, shortened: (§1)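 HEK293 clonal lines expressing human GLP-1R, 20-point compound curves, 30 min at 37° C in DMEM with 0.1% casein, 250 μM IBMX, 0.5% DMSO. cAMP by HTRF, converted via standard curve to % of maximal human GLP-1(7-36)NH2 response; relative EC50 and Emax from four-parameter logistic fit.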

human GLP-1R [2] = target: T1, human GLP-1R; assay: Human GLP-1 Receptor HEK293 cell cAMP assay, 104 fmol/mg GLP-1R expression density; assay type: cell-based; set-up: expressed in transfected cells; host or cells: HEK293 clonal cell line; details: HEK293 cell line with 104 fmol/mg expression density of GLP-1R; for EC50: geometric mean, read-out: EC50 nM (SEM, n), intracellular cAMP response, relative EC50; for Emax: percent of maximal response to GLP-1(7-36)NH2, arithmetic mean, read-out: Emax % (SEM, n), intracellular cAMP response
Procedure, shortened: as §1

T1 sequence (P43220 24-463): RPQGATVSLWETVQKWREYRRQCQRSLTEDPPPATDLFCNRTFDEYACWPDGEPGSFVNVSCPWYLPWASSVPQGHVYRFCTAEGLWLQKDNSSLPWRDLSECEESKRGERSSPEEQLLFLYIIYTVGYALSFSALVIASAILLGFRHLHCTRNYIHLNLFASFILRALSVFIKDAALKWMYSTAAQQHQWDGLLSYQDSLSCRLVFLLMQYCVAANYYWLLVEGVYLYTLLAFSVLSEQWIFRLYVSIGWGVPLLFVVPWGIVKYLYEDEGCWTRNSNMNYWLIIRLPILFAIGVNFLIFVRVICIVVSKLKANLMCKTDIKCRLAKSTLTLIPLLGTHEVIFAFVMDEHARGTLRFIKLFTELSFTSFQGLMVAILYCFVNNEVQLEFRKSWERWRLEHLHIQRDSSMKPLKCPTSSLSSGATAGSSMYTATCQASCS

| SMILES | EC50 (human GLP-1R [1]) | Emax (human GLP-1R [1]) | EC50 (human GLP-1R [2]) | Emax (human GLP-1R [2]) |
| --- | --- | --- | --- | --- |
| O=C(O)c1ccc2nc(Cc3ccc4cc3OCCCc3cc(-c5cccnc5)ccc3COc3cccc-4n3)n(C[C@@H]3CCO3)c2c1 [Example 37, (S)-1-(Oxetan-2-ylmethyl)-2-((5^4-(pyridin-3-yl)-3,9-dioxa-2(2,6)-pyridina-1(1,3),5(1,2)-dibenzenacyclononaphane-1^4-yl)methyl)-1H-benzo[d]imidazole-6-carboxylic acid] | 179 nM | 103% | 506 nM | 79.7% |
| O=C(O)c1ccc2nc(Cc3ccc4cc3OCCCc3cc(-c5ccc(CO)cc5)ccc3COc3cccc-4n3)n(C[C@@H]3CCO3)c2c1 [Example 39, (S)-2-((5^4-(4-(Hydroxymethyl)phenyl)-3,9-dioxa-2(2,6)-pyridina-1(1,3),5(1,2)-dibenzenacyclononaphane-1^4-yl)methyl)-1-(oxetan-2-ylmethyl)-1H-benzo[d]imidazole-6-carboxylic acid] | 244 nM | 99% | 762 nM | 76.6% |
| Cn1cc(-c2ccc3c(c2)CCCOc2cc(ccc2Cc2nc4ccc(C(=O)O)cc4n2C[C@@H]2CCO2)-c2cccc(n2)OC3)cn1 [Example 40, (S)-2-((5^4-(1-Methyl-1H-pyrazol-4-yl)-3,9-dioxa-2(2,6)-pyridina-1(1,3),5(1,2)-dibenzenacyclononaphane-1^4-yl)methyl)-1-(oxetan-2-ylmethyl)-1H-benzo[d]imidazole-6-carboxylic acid] | 42.4 nM | 110% | 154 nM | 85.9% |
| N#Cc1ccc2c(c1)CCCOc1cc(ccc1Cc1nc3ccc(-c4nnn[nH]4)cc3n1C[C@@H]1CCO1)-c1cccc(n1)OC2 [Example 41, (S)-1^4-((1-(Oxetan-2-ylmethyl)-6-(1H-tetrazol-5-yl)-1H-benzo[d]imidazol-2-yl)methyl)-3,9-dioxa-2(2,6)-pyridina-1(1,3),5(1,2)-dibenzenacyclononaphane-5^4-carbonitrile] | 184 nM | 89.1% | 713 nM | 60.3% |

Further lines, results first:

| EC50 (human GLP-1R [1]) | Emax (human GLP-1R [1]) | EC50 (human GLP-1R [2]) | Emax (human GLP-1R [2]) | SMILES |
| --- | --- | --- | --- | --- |
| 95.8 nM | 112% | 385 nM | 88.1% | O=C(O)c1ccc2nc(Cc3ccc4cc3OCCCc3cc(-c5cnn(C6CC6)c5)ccc3COc3cccc-4n3)n(C[C@@H]3CCO3)c2c1 [Example 35, (S)-2-((5^4-(1-Cyclopropyl-1H-pyrazol-4-yl)-3,9-dioxa-2(2,6)-pyridina-1(1,3),5(1,2)-dibenzenacyclononaphane-1^4-yl)methyl)-1-(oxetan-2-ylmethyl)-1H-benzo[d]imidazole-6-carboxylic acid] |
| 44 nM | 108% | 149 nM | 80% | Cn1cc(-c2ccc3c(c2)CCCOc2cc(ccc2Cc2nc4ccc(C(=O)O)cc4n2C[C@@H]2CCO2)-c2cccc(n2)OC3)ccc1=O [Example 36, (S)-2-((5^4-(1-Methyl-6-oxo-1,6-dihydropyridin-3-yl)-3,9-dioxa-2(2,6)-pyridina-1(1,3),5(1,2)-dibenzenacyclononaphane-1^4-yl)methyl)-1-(oxetan-2-ylmethyl)-1H-benzo[d]imidazole-6-carboxylic acid] |
| 300 nM | 90.1% | 613 nM | 56.9% | CNC(=O)c1ccc(-c2ccc3c(c2)CCCOc2cc(ccc2Cc2nc4ccc(C(=O)O)cc4n2C[C@@H]2CCO2)-c2cccc(n2)OC3)cc1 [Example 38, (S)-2-((5^4-(4-(Methylcarbamoyl)phenyl)-3,9-dioxa-2(2,6)-pyridina-1(1,3),5(1,2)-dibenzenacyclononaphane-1^4-yl)methyl)-1-(oxetan-2-ylmethyl)-1H-benzo[d]imidazole-6-carboxylic acid] |
| 187 nM | 103% | 539 nM | 66.4% | N#Cc1ccc2c(c1)OCCc1cc(c(F)cc1Cc1nc3ccc(C(=O)O)cc3n1C[C@@H]1CCO1)-c1cccc(n1)OC2 [Example 42, (S)-2-((5^4-Cyano-1^6-fluoro-3,6-dioxa-2(2,6)-pyridina-1(1,3),5(1,2)-dibenzenacyclooctaphane-1^4-yl)methyl)-1-(oxetan-2-ylmethyl)-1H-benzo[d]imidazole-6-carboxylic acid] |
